Reference: patent US10576102B2, “KOC1-derived peptide and vaccine including same” (ONCOTHERAPY SCIENCE, INC., priority 2014, dated 2020)

How the values were obtained:
peptide-pulsed C1R-A01 [1] = assay: In vitro CTL induction, IFN-gamma ELISPOT assay (HLA-A*0101); assay type: cell-based, human; conditions: CTLs induced with peptide-pulsed DCs from HLA-A*0101-positive volunteers; day 21; vs peptide-pulsed C1R-A01, compared with unpulsed control
Description: C1R (C1R-A01) that stably expresses HLA-A*0101 was used as a stimulator cell. A cDNA encoding the open-reading frame of HLA-A*0101 was amplified by PCR and cloned into an expression vector. C1R cells were transfected with the expression vector, and then selected using G418 (Invitrogen) for two weeks. The G418-selected cells were seeded into wells containing G418-added culture medium in a 96-well plate, and further cultured for 30 days. The exogenous HLA-A*0101 expression in C1R cells was verified by flow cytometric analysis.
Monocyte-derived dendritic cells (DCs) were used as the antigen-presenting cell to induce a cytotoxic T lymphocyte (CTL) response against peptides presented on human leukocyte antigens (HLAs). As described in the other sections, DCs were generated in vitro (Nakahara S et al., Cancer Res 2003, 63(14): 4112-8). Specifically, peripheral-blood mononuclear cells isolated from healthy volunteers (HLA-A*0101-positive) with the Ficoll-Paque plus solution (Pharmacia) were separated by attaching to plastic tissue culture dishes (Becton Dickinson) and concentrated as a monocyte fraction. The monocyte-concentrated population was cultured in the presence of 1000 IU/ml granulocyte macrophage colony-stimulating factor (R&D System) and 1000 IU/ml interleukin(IL)-4 (R&D System) in an AIM-V medium (Invitrogen) containing 2% heat-inactivated autologous serum (AS). After seven days of culturing, the cytokine-induced DCs were pulsed with 20 micro-g/ml each of the synthesized peptides in an AIM-V medium at 37 degrees C. for three hours in the presence of 3 micro-g/ml beta 2-microglobulin. Next, these peptide-pulsed DCs were inactivated by X-ray irradiation (20 Gy), and mixed in a 1:20 ratio with autologous CD8^+ T cells obtained by positive selection using the CD8 Positive Isolation Kit (Dynal). These culture products were seeded in a 48-well plate (Corning). Each well was made to contain 1.5×10^4 peptide-pulsed DCs, 3×10^5 CD8^+ T cells and 10 ng/ml IL-7 (R&D System) in 0.5 ml of the AIM-V/2% AS medium. Three days later, these culture products were added with a final concentration of 20 IU/ml IL-2 (CHIRON). On day 7 and day 14, T cells were further stimulated with peptide-pulsed autologous DCs. The DCs were prepared every time by the same method as above. On day 21, after the third peptide stimulation, CTL activities were examined against the peptide-pulsed C1R-A01 cells (Tanaka H et al., Br J Cancer 2001, 84(1): 94-9; Umano Y et al., Br J Cancer 2001, 84(8): 1052-7; Uchida N et al., Clin Cancer Res 2004, 10(24): 8577-86; Suda T et al., Cancer Sci 2006, 97(5): 411-9; Watanabe T et al., Cancer Sci 2005, 96(8): 498-506).
(§1) Specifically, peptide-pulsed C1R-A01 (1×10^4 cells/well) was prepared as the stimulator cell. The induced CTLs, i.e., CTL lines and CTL clones, were used as the responder cell. The IFN-gamma ELISPOT assay and IFN-gamma ELISA were performed according to the manufacturer's manual.

peptide-pulsed C1R-A01 [2] = assay: IFN-gamma ELISA of CTL lines and CTL clone (HLA-A*0101); assay type: cell-based, human; conditions: CTL lines; target cells pulsed with the peptide vs not pulsed; C1R-A01
Description: CTLs were propagated in culture using methods similar to those disclosed by Riddell et al. (Walter E A et al., N Engl J Med 1995, 333(16): 1038-44; Riddell S R et al., Nat Med 1996, 2(2): 216-23). The CTLs were co-cultured in a total of 25 ml AIM-V medium containing 5% AS and 40 ng/ml anti-CD3 antibody with two types of Mitomycin C-treated human B lymphoblastoid cell lines at 5×10^6 cells. One day after beginning of the culturing, 120 IU/ml IL-2 was added to the culture. On days 5, 8 and 11, a fresh AIM-V/5% AS medium containing 30 IU/ml IL-2 was added to the culture (Tanaka H et al., Br J Cancer 2001, 84(1): 94-9; Umano Y et al., Br J Cancer 2001, 84(8): 1052-7; Uchida N et al., Clin Cancer Res 2004, 10(24): 8577-86; Suda T et al., Cancer Sci 2006, 97(5): 411-9; Watanabe T et al., Cancer Sci 2005, 96(8): 498-506).
CTLs were seeded to make 1 or 10 cells/well in 96 round-bottomed microtiter plates (Nalge Nunc International). The CTLs were co-cultured with two types of Mitomycin C-treated human B lymphoblastoid cell lines at 1×10^4 cells in a total of 150 micro-1/well 5% AS-containing AIM-V medium with 30 ng/ml anti-CD3 antibody and 125 IU/ml IL-2. Ten days later, 50 micro-1 of IL-2 was added to the medium to reach a final IL-2 concentration of 125 IU/ml. On day 14, the CTL activity was tested, and the CTL clones were propagated using the same method as described above (Uchida N et al., Clin Cancer Res 2004, 10(24): 8577-86; Suda T et al., Cancer Sci 2006, 97(5): 411-9; Watanabe T et al., Cancer Sci 2005, 96(8): 498-506).
as §1

ETAVVNVTY (a peptide derived from KOC1) [SEQ ID NO: 87]
peptide-specific CTL activity (IFN-gamma production), ELISPOT (peptide-pulsed C1R-A01 [1]): potent IFN-gamma production | IFN-gamma production of CTL lines, ELISA (peptide-pulsed C1R-A01 [2]): potent IFN-gamma production
